In US5464861A, “2-thioindoles (selenoindoles) and related disulfides (selenides) which inhibit protein tyrosine kinases and which have antitumor properties” (Warner-Lambert, priority 1993, dated 1995) one finds inhibition and IC50 data, which are given here for 34 compounds.

Assay [1] addresses T1, epidermal growth factor receptor tyrosine kinase (Homo sapiens, UniProt P00533).
T1 construct: A native 170,000 epidermal growth factor receptor-kinase complex from shed plasma membrane vesicles; endogenous in cells
In words: EGF receptor tyrosine kinase assay (P^32 incorporation in GAT). Conditions: for inhibition at 100 µM: EGRF-R, read-out: % Inhibition at 100 μM (EGFR TK). It is filed as biochemical. As for the experimental part:
At the time of assay, membranes were solubilized in 4% Triton X-100 and glycerol. The reaction is carried out in wells of a 96-well microtiter plate in a total volume of […]. Buffer containing 20 mMHepes (pH 7.4), 15 mMMgCl2, mM MnCl2, and 0.02% BSA followed by […] of membrane protein and 150 ng of epidermal growth factor. The plates are incubated for 10 minutes at room temperature to activate the receptor kinase. […] ATP plus or minus compound are added and incubated 10 minutes at room temperature.

In assay [2] the target is T2, human PDGF β receptor intracellular tyrosine kinase domain (Homo sapiens, UniProt P09619).
T2 construct: human PDGF β receptor intracellular tyrosine kinase domain; made in house; host or cells: SF9 insect cells, recombinant baculovirus; cell lysates used
T2 sequence (P09619 554-1106 limits assumed): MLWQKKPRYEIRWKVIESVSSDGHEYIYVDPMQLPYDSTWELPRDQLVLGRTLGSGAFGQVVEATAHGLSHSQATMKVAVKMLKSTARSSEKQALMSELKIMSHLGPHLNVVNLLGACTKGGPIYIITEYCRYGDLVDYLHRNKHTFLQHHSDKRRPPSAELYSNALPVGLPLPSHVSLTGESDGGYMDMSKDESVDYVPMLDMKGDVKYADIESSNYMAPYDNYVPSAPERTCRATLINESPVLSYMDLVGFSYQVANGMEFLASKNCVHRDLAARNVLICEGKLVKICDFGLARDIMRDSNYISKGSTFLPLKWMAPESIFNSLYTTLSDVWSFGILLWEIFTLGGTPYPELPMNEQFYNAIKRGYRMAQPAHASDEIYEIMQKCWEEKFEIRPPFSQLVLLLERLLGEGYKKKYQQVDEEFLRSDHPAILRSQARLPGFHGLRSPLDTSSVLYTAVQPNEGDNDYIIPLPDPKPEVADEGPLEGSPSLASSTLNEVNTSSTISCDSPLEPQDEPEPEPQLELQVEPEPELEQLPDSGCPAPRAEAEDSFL
In words: PDGF receptor tyrosine kinase inhibition assay (P^32 incorporation in Glu-Tyr). It is filed as biochemical. Conditions: for inhibition at 100 µM: read-out: % Inhibition at 100 μM (PDGFR TK); for IC50: Table 2, PDGF-R, IC50 entries, read-out: IC50 (PDGFR TK).
Method: Recombinant baculovirus containing human PDGF β receptor intracellular tyrosine kinase domain was used to infect SF9 cells to overexpress the protein, and cell lysates were used for the assay. The ability of the tyrosine kinase to phosphorylate glutamate tyrosine substrate in the presence of P^32 -ATP and inhibitor was measured by counting the incorporation of P^32 in Glu-Tyr in TCAprecipitable material.

Where [3] appears, read: Table 2, EGRF-R, IC50 entries, read-out: IC50 (EGFR TK).

Where two headings read alike, the source gives them in different places.

T1 sequence (P00533 25-1210): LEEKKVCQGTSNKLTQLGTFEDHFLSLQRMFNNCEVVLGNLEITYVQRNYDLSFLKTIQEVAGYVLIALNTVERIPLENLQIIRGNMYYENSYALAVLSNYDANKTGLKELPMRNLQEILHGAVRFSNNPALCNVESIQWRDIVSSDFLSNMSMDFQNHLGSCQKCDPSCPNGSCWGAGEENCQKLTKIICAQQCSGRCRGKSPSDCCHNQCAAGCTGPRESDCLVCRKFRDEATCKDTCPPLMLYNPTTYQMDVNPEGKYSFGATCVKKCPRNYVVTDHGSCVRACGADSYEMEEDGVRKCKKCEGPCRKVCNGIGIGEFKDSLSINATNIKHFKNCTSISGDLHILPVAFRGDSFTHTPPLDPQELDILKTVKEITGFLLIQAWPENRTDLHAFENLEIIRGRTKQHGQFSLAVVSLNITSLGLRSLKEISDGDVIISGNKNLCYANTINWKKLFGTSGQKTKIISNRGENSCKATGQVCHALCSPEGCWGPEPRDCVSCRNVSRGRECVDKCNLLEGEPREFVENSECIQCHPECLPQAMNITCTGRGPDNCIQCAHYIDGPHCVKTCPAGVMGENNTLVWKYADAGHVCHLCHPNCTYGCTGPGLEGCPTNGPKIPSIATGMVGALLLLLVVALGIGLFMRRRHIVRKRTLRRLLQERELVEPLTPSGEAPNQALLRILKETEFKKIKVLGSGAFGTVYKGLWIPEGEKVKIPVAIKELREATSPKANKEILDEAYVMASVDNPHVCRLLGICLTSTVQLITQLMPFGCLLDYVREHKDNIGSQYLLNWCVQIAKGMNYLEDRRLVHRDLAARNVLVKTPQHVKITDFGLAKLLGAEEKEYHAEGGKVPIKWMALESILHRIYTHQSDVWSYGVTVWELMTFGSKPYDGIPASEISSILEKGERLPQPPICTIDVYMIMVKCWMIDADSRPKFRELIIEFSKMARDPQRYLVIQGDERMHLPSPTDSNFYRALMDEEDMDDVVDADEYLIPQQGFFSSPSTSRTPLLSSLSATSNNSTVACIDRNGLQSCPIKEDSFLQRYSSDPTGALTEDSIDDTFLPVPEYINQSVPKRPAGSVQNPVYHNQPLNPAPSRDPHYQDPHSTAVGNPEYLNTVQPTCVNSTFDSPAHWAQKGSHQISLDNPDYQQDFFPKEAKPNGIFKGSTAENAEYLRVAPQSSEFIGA
T1 sequence (P01133 971-1023 partner limits assumed): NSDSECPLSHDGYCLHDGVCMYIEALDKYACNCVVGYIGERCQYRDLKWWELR

`COC(=O)c1ccc(CNC(=O)CCc2c(SSc3[nH]c4ccccc4c3CCC(=O)NCc3ccc(C(=O)OC)c(O)c3)[nH]c3ccccc23)cc1O` [Compound 57]: the inhibition at 100 µM in assay [1] was 46%; in assay [2] (at 100 μM, PDGF-R) it was 14.5%.

As to `Cn1c(SSc2c(C(=O)NCC(=O)O)c3ccccc3n2C)c(C(=O)NCC(=O)O)c2ccccc21` [Compound 112, 2,2'-dithiobis[N-carboxymethyl1-methylindolyl-3-carboxamide]], the IC50 in assay [1] (setting [3]) worked out at 10 µM. The inhibition at 100 µM in assay [2] (at 100 μM, PDGF-R) worked out at 69%.

In the case of `Cn1c(SSc2c(C(=O)Nc3ccccc3)c3cc(C#N)ccc3n2C)c(C(=O)Nc2ccccc2)c2cc(C#N)ccc21` [Compound 88, 2,2'-dithiobis[N-phenyl-5-cyano-1-methylindolyl-3-carboxamide]], the half-inhibitory concentration (IC50) in assay [1] (setting [3]) worked out at 54 µM. Moreover, the inhibition at 100 µM in assay [2] (at 100 μM, PDGF-R) was 51%.

For the compound `O=C(CCc1c(SSc2[nH]c3ccccc3c2CCC(=O)NCc2ccc(C(=O)O)cc2)[nH]c2ccccc12)NCc1ccc(C(=O)O)cc1` [Compound 56, 2,2'-dithiobis[N-(4-carboxybenzyl)-3-(3-indolyl)propanamide]], in assay [1] (setting [3]), the IC50 amounted to 7.3 µM. The inhibition at 100 µM in assay [2] (at 100 μM, PDGF-R) came out at 44.5%.

As to `CC(=O)Oc1cccc2c1c(C(=O)Nc1ccccc1)c(SSc1c(C(=O)Nc3ccccc3)c3c(OC(C)=O)cccc3n1C)n2C` [Compound 90, 2,2'-dithiobis [N-phenyl 4-acetoxy-1-methylindolyl-3-carboxamide]], the IC50 in assay [1] (setting [3]) is 26 µM; in assay [2], 36.5 µM.

As to `O=C(CCCc1c(SSc2[nH]c3ccccc3c2CCCC(=O)NCc2ccccc2)[nH]c2ccccc12)NCc1ccccc1` [Compound 69], the inhibition at 100 µM in assay [1] came out at 55.6%; in assay [2] (at 100 μM, PDGF-R), 8.9%.

For `Cn1c(SSc2c(C(=O)Nc3ccccc3C(=O)O)c3ccccc3n2C)c(C(=O)Nc2ccccc2C(=O)O)c2ccccc21` [Compound 109, 2,2'-dithiobis[N-(2'-carboxy)phenyl-1-methylindolyl-3-carboxamide]], the IC50 in assay [1] (setting [3]) is 47 µM. Further, the inhibition at 100 µM in assay [2] (at 100 μM, PDGF-R) amounted to 8%.

In the case of `CONC(=O)CCc1c(SSc2[nH]c3ccccc3c2CCC(=O)NOC)[nH]c2ccccc12` [Compound 52], the IC50 in assay [1] (setting [3]) is 68.2 µM. Besides, the inhibition at 100 µM in assay [2] (at 100 μM, PDGF-R) stood at 18.3%.

`Cc1ccc2c(C(=O)Nc3ccccc3)c(SSc3c(C(=O)Nc4ccccc4)c4ccc(C)cc4n3C)n(C)c2c1` [Compound 77, bis [N-phenyl 1,6-dimethylindolyl-3-carboxamide-(2)]disulfide]: the inhibition at 100 µM is 9% in assay [1] and 1% in assay [2] (at 100 μM, PDGF-R).

As to `O=C(CC1C(=S)Nc2ccccc21)NCc1ccccc1` (centres unmarked) [Compound 6, N-benzyl (2-thioxo-3-indolinyl) acetamide], the IC50 in assay [1] (setting [3]) is 25 µM. Moreover, the inhibition at 100 µM in assay [2] (at 100 μM, PDGF-R) came to 8.5%.

As for `Cn1c(SSc2c(C(=O)Nc3ccccc3)c3cc(Br)ccc3n2C)c(C(=O)Nc2ccccc2)c2cc(Br)ccc21` [Compound 89, 2,2'-dithiobis[N-phenyl-5-bromo-1-methylindolyl-3-carboxamide]], in assay [1] (setting [3]), the IC50 was 11.4 µM. Moreover, in assay [2] (at 100 μM, PDGF-R), the inhibition at 100 µM was determined as 3%.

On to `Cn1c(SSc2c(C(=O)Nc3ccccc3)c3ccc(Cl)cc3n2C)c(C(=O)Nc2ccccc2)c2ccc(Cl)cc21` [Compound 85, bis[N-phenyl 6-chloro-1-methylindolyl-3-carboxamide-(2)]disulfide], for which the inhibition at 100 µM in assay [1] came to 8%; in assay [2] (at 100 μM, PDGF-R) it was 7%.

For `NC(=O)CCc1c(SSc2[nH]c3ccccc3c2CCC(N)=O)[nH]c2ccccc12` [Compound 50], the IC50 in assay [1] (setting [3]) stood at 16 µM. The inhibition at 100 µM in assay [2] (at 100 μM, PDGF-R) amounted to 62.6%.

Regarding `CN(C(=O)c1c(SSc2c(C(=O)N(C)c3ccccc3)c3ccccc3n2C)n(C)c2ccccc12)c1ccccc1` [Compound 113, 2,2 '-dithiobis [N-methyl-N-phenyl-1-methylindolyl-3-carboxamide]], the inhibition at 100 µM in assay [1] was determined as 5%; in assay [2] (at 100 μM, PDGF-R), 29%.

On to `Cn1c(SSc2c(C(N)=O)c3ccccc3n2C)c(C(N)=O)c2ccccc21` [Compound 118, 2,2'-dithiobis[1-methylindolyl-3-carboxamide]], for which the IC50 in assay [1] (setting [3]) was 4.7 µM. In addition, in assay [2] (at 100 μM, PDGF-R), the inhibition at 100 µM came out at 78%.

For `Cn1c(SSc2c(C(=O)Nc3ccncc3)c3ccccc3n2C)c(C(=O)Nc2ccncc2)c2ccccc21` [Compound 116, 2,2'-dithiobis[N-(4-pyridyl)-1-methylindolyl-3-carboxamide]], the inhibition at 100 µM in assay [1] was 4%. In assay [2], the half-maximal inhibitory concentration (IC50) is 7.9 µM.

With `Cn1c(SSc2c(C(=O)Nc3ccc(C(=O)O)cc3)c3ccccc3n2C)c(C(=O)Nc2ccc(C(=O)O)cc2)c2ccccc21` [Compound 105, 2,2'-dithiobis [N-(4'-carboxy)phenyl-1-methylindolyl-3-carboxamide]], the IC50 in assay [1] (setting [3]) turned out to be 16.9 µM. Further, the inhibition at 100 µM in assay [2] (at 100 μM, PDGF-R) amounted to 33%.

Regarding `Cn1c(SSc2c(C(=O)Nc3ccccc3)c3cc(F)ccc3n2C)c(C(=O)Nc2ccccc2)c2cc(F)ccc21` [Compound 87, 2,2'-dithiobis [N-phenyl-5-fluoro-1-methylindolyl-3-carboxamide]], the inhibition at 100 µM in assay [1] is 34%; in assay [2] (at 100 μM, PDGF-R), 44%.

For the compound `Cn1c(SSc2c(C(=O)NCC(O)CO)c3ccccc3n2C)c(C(=O)NCC(O)CO)c2ccccc21` (centres unmarked) [Compound 114, 2,2'-dithiobis [N-(2,3-dihydroxypropyl)-1-methylindolyl-3-carboxamide]], the values for the half-maximal inhibitory concentration (IC50) in assay [1] (setting [3]) and in assay [2] were 42.9 µM and 7 µM, respectively.

Consider `O=C(NCc1ccccc1)C(Cc1c(SSc2[nH]c3ccccc3c2CC(NC(=O)C(F)(F)F)C(=O)NCc2ccccc2)[nH]c2ccccc12)NC(=O)C(F)(F)F` (racemic) [Compound 61, 2,2'-dithiobis[N-benzyl-α-trifluoroacetylamino-3-(3-indolyl)propanamide]], for which the inhibition at 100 µM in assay [1] stood at 37%; in assay [2] (at 100 μM, PDGF-R), 11%.

`Cn1c(SSc2c(C(=O)Nc3ccccc3)c3cc([N+](=O)[O-])ccc3n2C)c(C(=O)Nc2ccccc2)c2cc([N+](=O)[O-])ccc21` [Compound 86, 2,2'-dithiobis [N-phenyl-1-methyl-5-nitroindolyl-3-carboxamide]] yielded an IC50 in assay [1] of 4.9 µM. In assay [2], the inhibition at 100 µM amounted to 5%.

`O=C(CCc1c(SSc2[nH]c3ccccc3c2CCC(=O)Nc2ccccc2)[nH]c2ccccc12)Nc1ccccc1` [Compound 59]: the IC50 in assay [1] (setting [3]) was 30.5 µM. Further, the inhibition at 100 µM in assay [2] (at 100 μM, PDGF-R) was 11.4%.

On to `Cn1c(SSc2c(C(=O)Nc3ccccc3)c3cc(C(F)(F)F)ccc3n2C)c(C(=O)Nc2ccccc2)c2cc(C(F)(F)F)ccc21` [Compound 84, 2,2-dithiobis [N-phenyl-1-methyl-5-(trifluoro-methyl)indolyl-3-carboxamide]], for which the inhibition at 100 µM in assay [1] was determined as 35%; in assay [2] (at 100 μM, PDGF-R), 22%.

Regarding `COc1ccc2c(c1)c(C(=O)Nc1ccccc1)c(SSc1c(C(=O)Nc3ccccc3)c3cc(OC)ccc3n1C)n2C` [Compound 80, bis[N-phenyl 5-methoxy-1-methylindolyl-3-carboxamide-(2)]disulfide], the inhibition at 100 µM in assay [1] was determined as 0%; in assay [2] (at 100 μM, PDGF-R), 16%.

Take `Cc1cccc2c(C(=O)Nc3ccccc3)c(SSc3c(C(=O)Nc4ccccc4)c4cccc(C)c4n3C)n(C)c12` [Compound 78, bis [N-phenyl 1,7-dimethyl indolyl-3-carboxamide-(2)]disulfide]: the inhibition at 100 µM in assay [1] worked out at 27%; in assay [2] (at 100 μM, PDGF-R), 7%.

As for `Cn1c(SSc2c(C(=O)Nc3cccnc3)c3ccccc3n2C)c(C(=O)Nc2cccnc2)c2ccccc21` [Compound 117, 2,2'-dithiobis [N-(3-pyridyl) 1-methylindolyl-3-carboxamide]], the inhibition at 100 µM in assay [1] came to 25%. The IC50 in assay [2] turned out to be 4.2 µM.

On to `CN(C)C(=O)c1c(SSc2c(C(=O)N(C)C)c3ccccc3n2C)n(C)c2ccccc12` [Compound 119, 2,2'-dithiobis[N,N-dimethyl-1-methylindolyl-3-carboxamide]], for which the IC50 in assay [1] (setting [3]) was found to be 21.2 µM. For the same compound, the inhibition at 100 µM in assay [2] (at 100 μM, PDGF-R) amounted to 73%.

For the compound `Cn1c(SSc2c(C(=O)c3ccccc3)c3ccccc3n2C)c(C(=O)c2ccccc2)c2ccccc21` [Compound 100, bis[3-benzoyl-1-methylindole-(2)]disulfide], the inhibition at 100 µM in assay [2] is 23%.

On to `COC(=O)CCCc1c(SSc2[nH]c3ccccc3c2CCCC(=O)OC)[nH]c2ccccc12` [Compound 67, bis[methylindolyl-3-butanoate-(2)]-disulfide], for which the inhibition at 100 µM was found to be 18% in assay [1] and 2% in assay [2] (at 100 μM, PDGF-R).

Turning to `O=C(NCc1ccccc1)C(O)Cc1c(SSc2[nH]c3ccccc3c2CC(O)C(=O)NCc2ccccc2)[nH]c2ccccc12` (stereo not drawn) [Compound 64, 2,2'-dithiobis[α-hydroxy-N -(phenylmethyl)-1H-indole-3-propanamide]], the concentration for half-maximal inhibition (IC50) in assay [1] (setting [3]) is 29 µM.

With `COC(=O)c1ccc(C(=O)C2C(=S)N(C)c3ccccc32)cc1` (centres unmarked) [Compound 26, 3-(4'-carbomethoxybenzoyl) -1-methyl-2-indolinethione], the inhibition at 100 µM in assay [2] stood at 5%.

As to `NC(=O)CCC1C(=S)Nc2ccccc21` (centres unmarked) [Compound 14, 3-(2-thioxo-3-indolinyl)propanamide], in assay [1] (setting [3]), the concentration for half-maximal inhibition (IC50) came out at 22 µM.

With `Cn1c(SSc2c(CCCC(=O)O)c3ccccc3n2C)c(CCCC(=O)O)c2ccccc21` [Compound 66], in assay [1] (setting [3]), the IC50 is 8.3 µM.

`CCOC(=O)CCc1c(SSc2[nH]c3ccc(C)cc3c2CCC(=O)OCC)[nH]c2ccc(C)cc12` [Compound 42, bis[ethyl 5-methylindolyl-3-propanoate-(2)]disulfide]: the inhibition at 100 µM in assay [1] stood at 26%.

What is called inhibition is the change of the read-out against control, counted positive when it falls. One may read the IC50 as the point on the concentration scale where inhibition reaches its midpoint.
